{"source": "patent US20220039907A1", "about": "“Inhibiting Post-Biopsy Inflammation and Metastasis” (The Board of Regents of the University of Oklahoma, priority 2020, published 2022)", "key": {"[1]": {"system": "VCAM1 expression in End.3", "test": "PGE2-induced VCAM1 expression in End.3 with selective EP antagonists", "format": "cell-based, murine", "details": "End.3 cells, PGE2 stimulated", "from_the_text": "(§1) Inflamed vessels serve as a gateway for MSCs to enter tissue parenchyma. VCAM1 engagement to integrin α4β1 (very late antigen 4; VLA4) mediates shear resistant adhesion of MSCs to the vessel wall that leads to their trans-endothelial migration. […] Similarly, VCAM1 vascular expression was elevated in PGE2 treated mice compared to untreated ones (FIG. 10(B)). Accordingly, shear resistant adhesion of human MSCs was 2-fold higher to PGE2 treated HMVECs than to untreated ones; however, VCAM1 neutralizing antibody abrogated PGE2-induced shear resistant adhesion of MSCs (FIG. 10(C)). […] The white circle in the left panel of FIG. 10(D) indicates infiltrating GFP+ MSCs, and the inset in the upper left corner is a close-up image of the corresponding location. Since VLA4 is the ligand for VCAM1, and conformational change of VLA4 is prerequisite for binding to VCAM1, ligand binding assay using FITC-LDV peptide (which selectively binds to an active form of VLA4) was performed.\nPGE2 exerts its action through the binding to 4 types of prostaglandin E receptor (EP1, 2, 3, and 4), which ubiquitously express in various cell types. Human endothelial cells express all 4 types of EP receptors. […] Therefore, without wishing to be bound by theory, an explanation of biopsy-induced metastasis is that systemic availability of PGE2 leads to an elevation of VCAM1 expression in the pulmonary vessels through the EP4 receptor, resulting in increased MSCs tissue infiltration that initiates a provisional PMN in the perivascular space of the lungs (see overview model in FIG. 8)."}, "[2]": {"system": "bone marrow-derived primary Mϕ", "test": "PGE2-mediated arginase expression in bone marrow-derived primary Mϕ with EP inhibitors", "format": "cell-based", "details": "Mϕ incubated with PGE2 and selective EP inhibitor", "procedure": "(§2) To further identify the biological consequences of abundant PGE2, the bone marrow-derived primary Mϕ was incubated with 10 μM PGE2. […] PGE2 exerts its action through 4 integral membranous E prostanoid receptors (EP1, EP2, EP3, and EP4). The Mϕ was incubated with PGE2 and selective pharmacologic inhibitors against respective prostaglandin E2 receptor (EP2)."}, "py230 BC cells": {"system": "py230 BC cells", "test": "Experimental metastasis model: intravenous PGE2 priming followed by py230 BC cell injection", "format": "in vivo", "details": "intravenous PGE2 at level equal to post-biopsy blood, versus untreated mice", "from_the_text": "Wounding triggers a repair cascade by forming a fibrin matrix containing a series of chemo-attractants (e.g., TGF-β, bFGF, PDGF, TNFα, and EGF) that recruit MSCs from bone marrow to the injured site. MSCs produce innumerable growth factors, cyto-chemokines, and metabolites that promote angiogenesis, immunomodulation, and ECM remodeling in order to repair the damaged tissue. […] MSC2 is characterized by a high level of PGE2 release, a potent vasodilater. […] Given the high interstitial pressure coupled with insufficient lymphatic drainage due to superficial lymphatic vessels in solid tumors, soluble factors seep into the circulation from the tumor. Accordingly, PGE2 levels in the blood were 3 times higher in the biopsied mice compared to that in mice bearing unbiopsied tumors or mice without tumor burden (FIG. 6(C)). PGE2 is enzymatically converted from arachidonic acid by the rate-limiting enzyme Cyclooxygenase (COX). COX2 expression is induced by inflammatory stimuli, whereas COX1 is constitutive. […] However, the biologic mechanism by which circulating PGE2 promotes metastasis has heretofore remained unknown.\nPGE2-induced hyper-permeation sites indicated by leakage of 40 kDa FITC-dextran (green) coincided with accumulation of SSEA4^+ MSCs (red), a key component of the PMN^51 (FIG. 9(C))."}, "pulmonary vessels": {"system": "pulmonary vessels", "test": "Pulmonary vessel permeability (Evans Blue leakage) after intravenous PGE2", "format": "in vivo, mice", "details": "intravenous injection, versus saline"}, "[3]": {"system": "human microvessel endothelial cells (HMVECs)", "test": "PGE2 induction of VCAM1 mRNA in HMVECs", "format": "cell-based", "details": "PGE2 level equivalent to post-biopsy blood", "from_the_text": "as §1"}, "[4]": {"system": "murine endothelial cell line (End.3)", "test": "PGE2 induction of VCAM1 mRNA in End.3", "format": "cell-based", "details": "End.3, PGE2 level equivalent to post-biopsy blood", "from_the_text": "as §1"}, "[5]": {"system": "VCAM1 vascular expression", "test": "VCAM1 vascular expression in PGE2 treated mice", "format": "in vivo", "details": "PGE2 treated versus untreated mice", "from_the_text": "as §1"}, "HMVECs": {"system": "HMVECs", "test": "Shear resistant adhesion of human MSCs to HMVECs", "format": "cell-based", "details": "PGE2 treated HMVECs versus untreated", "from_the_text": "as §1"}, "[6]": {"system": "bone marrow-derived primary Mϕ", "test": "Quantitative PCR of M2/M1 marker mRNAs in bone marrow-derived primary Mϕ incubated with PGE2", "format": "cell-based", "details": "10 μM PGE2", "procedure": "as §2"}, "lung": {"system": "lung", "test": "Adoptive transfer of GFP+ MSCs into PGE2 pre-treated mice", "format": "in vivo", "from_the_text": "as §1"}, "primary mouse MSCs": {"system": "primary mouse MSCs", "test": "Biopsy-WF induced PGE2 release from primary mouse MSCs", "format": "cell-based", "details": "primary mouse MSCs treated with biopsy-WF"}, "4T1-Luc tumors": {"system": "4T1-Luc tumors", "test": "Organ metastasis-free survival of 4T1-Luc tumor mice with or without biopsy, oral ibuprofen", "format": "in vivo", "procedure": "To experimentally explore the hypothesis that inhibition of PGE2 biosynthesis by NSAIDs diminishes biopsy-induced metastasis, 4T1-Luc tumors were biopsied or left unbiopsied (n=10 per group) once tumor size reached 100 mm^3. One day later, daily oral ibuprofen (non-selective COX inhibitor) or saline was started (50 mg/kg) for 9 days, until the day before mastectomy. Mice were then monitored for metastasis over the next 3 months. […] In contrast, cellularity and COX2 expression in the biopsy wound were far less in mice that were treated with ibuprofen (FIG. 12(B))."}, "[7]": {"system": "PGE2 level in biopsied mouse tumors", "test": "PGE2 level in biopsied mouse tumors after oral ibuprofen", "format": "in vivo", "details": "oral administration; to a level equal to the unbiopsied tumor"}, "Py230mCherry tumor": {"system": "Py230mCherry tumor", "test": "Biopsy-induced lung metastasis in Py230mCherry tumor bearing mice, oral COX2/EP2 inhibitors", "format": "in vivo", "details": "daily following biopsy, n=15 per group"}}, "data": [{"smiles": "Cc1cc(Cl)ccc1S(=O)(=O)NC[C@H]1C2CCC(CC2)[C@@H]1/C=C\\CCCC(=O)O", "note": "[0N08711]", "values": [{"measurement": "PGE2-induced VCAM1 expression", "setting": "[1]", "value": "no effect"}, {"measurement": "PGE2-mediated arginase expression", "setting": "[2]", "value": "no inhibitory effect"}]}, {"smiles": "CCCCc1nn(-c2ccccc2C(F)(F)F)c(=O)n1Cc1ccc(-c2ccccc2S(=O)(=O)NC(=O)c2sccc2C)cc1", "note": "[L-161982]", "values": [{"measurement": "PGE2-induced VCAM1 expression", "setting": "[1]", "value": "blocked"}, {"measurement": "PGE2-mediated arginase expression", "setting": "[2]", "value": "no inhibitory effect"}]}, {"smiles": "CCCCC[C@H](O)/C=C/[C@H]1[C@H](O)CC(=O)[C@@H]1C/C=C\\CCCC(=O)O", "note": "[PGE2, prostaglandin E2]", "values": [{"measurement": "pulmonary metastasis of py230 BC cells", "setting": "py230 BC cells", "value": "enhanced pulmonary metastasis"}, {"measurement": "vessel permeability (Evans Blue leakage into the lungs)", "setting": "pulmonary vessels", "value": "increased vessel permeability"}, {"measurement": "VCAM1 mRNA expression", "setting": "[3]", "value": "induce"}, {"measurement": "VCAM1 mRNA expression", "setting": "[4]", "value": "induce"}, {"measurement": "VCAM1 vascular expression", "setting": "[5]", "value": "elevated"}, {"measurement": "shear resistant adhesion of human MSCs", "setting": "HMVECs", "value": 2, "unit": "fold"}, {"measurement": "M1 marker mRNAs (iNOS and TNFα)", "setting": "[6]", "value": "decrease"}, {"measurement": "M2 marker mRNA expression (arginase, YM1, YM2)", "setting": "[6]", "value": "increase"}, {"measurement": "infiltration of GFP+ MSCs", "setting": "lung", "value": "preferential infiltration to perivascular space"}]}, {"smiles": "COc1ccc2c(c1)c(CC(=O)O)c(C)n2C(=O)c1ccc(Cl)cc1", "note": "[indomethacin]", "values": [{"measurement": "biopsy-WF induced PGE2 release", "setting": "primary mouse MSCs", "value": "equally abrogated"}]}, {"smiles": "CC(C)Cc1ccc(C(C)C(=O)O)cc1", "note": "(stereo not drawn) [ibuprofen]", "values": [{"measurement": "onset of metastasis", "setting": "4T1-Luc tumors; biopsied 4T1-Luc mice, daily oral 50 mg/kg for 9 days", "value": "delayed onset"}, {"measurement": "metastasis incidence", "setting": "4T1-Luc tumors; biopsied 4T1-Luc mice, daily oral 50 mg/kg for 9 days, monitored 3 months, biopsied without drug 6/10", "value": "2/10"}, {"measurement": "cellularity and COX2 expression in the biopsy wound", "setting": "4T1-Luc tumors; histopathology of mastectomized tumors, versus untreated biopsied", "value": "far less"}, {"measurement": "effect on metastasis in mice that did not receive biopsy", "setting": "4T1-Luc tumors; unbiopsied 4T1-Luc mice, daily oral 50 mg/kg", "value": "no significant effect"}, {"measurement": "PEG2 level in biopsied mouse tumors", "setting": "[7]", "value": "significantly reduced"}, {"measurement": "biopsy-WF induced PGE2 release", "setting": "primary mouse MSCs", "value": "equally abrogated"}]}, {"smiles": "COc1ccc2cc(OCC3(C(=O)O)CN(C(=O)c4ccc(F)cc4)C3)ccc2c1", "note": "[PF-04418948]", "values": [{"measurement": "PGE2-induced VCAM1 expression", "setting": "[1]", "value": "no effect"}, {"measurement": "PGE2-mediated arginase expression", "setting": "[2]", "value": "abrogated"}, {"measurement": "biopsy-induced lung metastasis", "setting": "Py230mCherry tumor", "value": "significantly reduced"}]}, {"smiles": "COc1ccc(Br)cc1S(=O)(=O)NC(=O)/C=C/c1ccccc1Cc1ccc2ccccc2c1", "note": "[L-798106]", "values": [{"measurement": "PGE2-mediated arginase expression", "setting": "[2]", "value": "no inhibitory effect"}]}]}
